The target in the test is T1, OpuCA (Staphylococcus aureus, UniProt A0A0H2XHM3).
T1 sequence (A0A0H2XHM3 1-408): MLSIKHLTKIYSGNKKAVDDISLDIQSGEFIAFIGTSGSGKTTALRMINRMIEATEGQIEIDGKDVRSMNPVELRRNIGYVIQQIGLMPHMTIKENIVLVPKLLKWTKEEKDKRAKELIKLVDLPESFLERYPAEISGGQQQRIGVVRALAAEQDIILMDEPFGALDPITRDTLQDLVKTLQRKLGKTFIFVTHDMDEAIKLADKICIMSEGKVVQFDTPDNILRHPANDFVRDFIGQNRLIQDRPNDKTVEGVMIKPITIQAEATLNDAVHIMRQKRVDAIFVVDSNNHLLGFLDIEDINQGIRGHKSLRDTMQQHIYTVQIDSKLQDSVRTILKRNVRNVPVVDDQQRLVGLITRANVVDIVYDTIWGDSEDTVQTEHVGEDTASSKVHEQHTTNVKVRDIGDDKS
In kind it is binding.

Regarding `Nc1ncnc2c1ncn2[C@@H]1O[C@@H]2COP(=O)(O)O[C@H]3[C@@H](O)[C@H](n4cnc5c(N)ncnc54)O[C@@H]3COP(=O)(O)O[C@H]2[C@H]1O` [c-di-AMP], the Kd (as a rule, the equilibrium constant for the complex coming apart) worked out at 2460 ± 140 nM.

The values are drawn from paper PMC5248971 (Science signaling, 2016).
